SMILES strings stand for the structures.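 Assay format: 96-well plates, 48-hour exposure. TGI marks complete inhibition of growth.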

Our source for the TGI values is PubChem BioAssay (NCI).

Some test systems named below: TK-10 renal; RXF 393 renal; CCRF-CEM leukemia; 786-0 renal; BT-549 breast; SNB-75 CNS; NCI/ADR-RES ovarian; HS 578T breast; SNB-19 CNS; SK-MEL-5 melanoma.
Holding throughout (test): inhibition of tumour cell growth, NCI panel, 48 h

On to `O=C(Nc1sccc1S(=O)(=O)c1ccc(Cl)cc1)c1ccc(F)cc1F`, for which the TGI in the test with TK-10 renal came out at 42.7 µM; with RXF 393 renal, 46.2 µM; in the test on CCRF-CEM leukemia, 37.8 µM; in the test with 786-0 renal, 36.5 µM; with BT-549 breast, 46.8 µM; in the test on SNB-75 CNS, 38.8 µM. Also, the TGI was > 100 µM with NCI/ADR-RES ovarian, 80.5 µM in the test with HS 578T breast, 48.8 µM with SNB-19 CNS and > 100 µM in the test on SK-MEL-5 melanoma.
For the molecule `O=C1CCCNn2c(nc3ncccc3c2=O)N1`, the TGI with TK-10 renal, in the test on RXF 393 renal, in the test on CCRF-CEM leukemia, in the test with 786-0 renal, with BT-549 breast and in the test on SNB-75 CNS was > 100 µM throughout. Also, the TGI with NCI/ADR-RES ovarian, with HS 578T breast, in the test with SNB-19 CNS and with SK-MEL-5 melanoma was > 100 µM in each case.
In the case of `O=C1c2cc(Cc3ccccc3)c(=O)c(Cc3ccccc3)cc2C(=O)c2cc(Cc3ccccc3)c(=O)c(Cc3ccccc3)cc21`, the TGI in the test on TK-10 renal, in the test on RXF 393 renal, in the test with CCRF-CEM leukemia, in the test on 786-0 renal, in the test on BT-549 breast and in the test with SNB-75 CNS was > 100 µM each time. The TGI in the test with NCI/ADR-RES ovarian, with HS 578T breast, in the test on SNB-19 CNS and with SK-MEL-5 melanoma was > 100 µM throughout.
In the case of `FC(F)(F)c1cc(N(C2c3ccccc3C=Cc3ccccc32)P(Cl)Cl)cc(C(F)(F)F)c1`, the TGI in the test on TK-10 renal is > 100 µM; in the test with RXF 393 renal it was 27.1 µM; with CCRF-CEM leukemia it was 82.3 µM; with 786-0 renal, 35.5 µM; with BT-549 breast, 23 µM; in the test with SNB-75 CNS, 61.7 µM. The TGI in the test with NCI/ADR-RES ovarian is 21.6 µM; with HS 578T breast, 79.5 µM; with SNB-19 CNS, 56.8 µM; with SK-MEL-5 melanoma it was 32.7 µM.
As to `Cn1cccc1-c1ccc(-c2ccc(CO)[se]2)[se]1`, the TGI in the test on TK-10 renal was > 100 µM; in the test with RXF 393 renal, 43.2 µM; with CCRF-CEM leukemia it was > 46.7 µM; with 786-0 renal, > 100 µM; with BT-549 breast, > 78.5 µM; in the test with SNB-75 CNS it was 59.5 µM. The TGI with NCI/ADR-RES ovarian is > 81 µM; in the test with HS 578T breast it was > 100 µM; in the test on SNB-19 CNS it was > 100 µM; in the test with SK-MEL-5 melanoma, > 75 µM.
On to `O=C(c1ccccc1)c1ccc2nc(-c3c(Cl)c(Cl)c(Cl)c(Cl)c3-c3nnc(-c4ccccc4)o3)[nH]c2c1`, for which the TGI in the test with TK-10 renal is > 100 µM; in the test with RXF 393 renal, 47.1 µM; with CCRF-CEM leukemia it was > 100 µM; in the test with 786-0 renal, > 100 µM; in the test with BT-549 breast it was > 100 µM; in the test with SNB-75 CNS, 84.4 µM. Moreover, the TGI with NCI/ADR-RES ovarian was > 100 µM; in the test with HS 578T breast it was > 100 µM; with SNB-19 CNS, > 100 µM; in the test on SK-MEL-5 melanoma, 54.1 µM.
Turning to `COC(=O)c1ccccc1C1CN=NC12Cc1c(ccc3c1CCC3)C2=O` (stereo not given), the TGI in the test with TK-10 renal, in the test with RXF 393 renal, in the test on CCRF-CEM leukemia, in the test with 786-0 renal, with BT-549 breast and in the test with SNB-75 CNS was > 100 µM each time. For the same molecule, the TGI in the test with NCI/ADR-RES ovarian is > 100 µM; in the test on HS 578T breast, > 100 µM; with SNB-19 CNS, > 100 µM; with SK-MEL-5 melanoma it was 58.6 µM.
With `CC(C)(C)OC(=O)N/C(C=O)=C\C1CCCCC1`, the TGI is 32.9 µM in the test with TK-10 renal; 59.7 µM with RXF 393 renal; > 100 µM in the test on CCRF-CEM leukemia; 42.6 µM in the test on 786-0 renal; 70.6 µM with BT-549 breast; > 100 µM in the test with SNB-75 CNS. For the same molecule, the TGI with NCI/ADR-RES ovarian turned out to be 44.3 µM; with HS 578T breast, 84.7 µM; in the test with SNB-19 CNS, 76.1 µM; in the test with SK-MEL-5 melanoma, 31.3 µM.
With `Cc1cn(C2CCC(CO)(CF)O2)c(=O)[nH]c1=O` (stereo not given), the TGI in the test with TK-10 renal, with RXF 393 renal, in the test on CCRF-CEM leukemia, in the test on 786-0 renal, in the test on BT-549 breast and in the test with SNB-75 CNS was > 100 µM each time. Besides, the TGI in the test on NCI/ADR-RES ovarian, in the test with HS 578T breast, in the test with SNB-19 CNS and in the test with SK-MEL-5 melanoma was > 100 µM throughout.
As for `Cc1ccc(S(=O)(=O)NC(CCC(=O)NNc2ccccc2)C(=O)NNc2ccccc2)cc1` (stereo not given), the TGI in the test with TK-10 renal was 46.5 µM; in the test on RXF 393 renal, > 100 µM; in the test on CCRF-CEM leukemia, > 100 µM; with 786-0 renal, > 100 µM; in the test on BT-549 breast, > 100 µM; in the test with SNB-75 CNS, > 100 µM. In addition, the TGI in the test with NCI/ADR-RES ovarian, with HS 578T breast, in the test with SNB-19 CNS and in the test on SK-MEL-5 melanoma was > 100 µM throughout.
Consider `CCCC[C@@H](C)/C=C1\CN2CCC[C@H]2[C@@](C)(OCc2ccccc2)[C@@H]1O`, for which the TGI in the test with TK-10 renal, in the test with RXF 393 renal, in the test on CCRF-CEM leukemia, in the test on 786-0 renal, in the test on BT-549 breast and in the test with SNB-75 CNS was > 50 µM throughout. Also, the TGI in the test on NCI/ADR-RES ovarian, in the test on HS 578T breast, with SNB-19 CNS and with SK-MEL-5 melanoma was > 50 µM each time.
As for `Cc1cc(C)c2c(c1)CC1(Cc3cc(C)c(C)cc3C1=O)C2=O` (stereo not given), the TGI in the test on TK-10 renal, in the test on RXF 393 renal, in the test with CCRF-CEM leukemia, in the test on 786-0 renal, in the test with BT-549 breast and in the test on SNB-75 CNS was > 100 µM throughout. The TGI in the test on NCI/ADR-RES ovarian, with HS 578T breast, with SNB-19 CNS and in the test with SK-MEL-5 melanoma was > 100 µM throughout.
Consider `N#Cc1c(-c2ccc(Cl)cc2)cc(-c2ccc(Nc3ccnc4cc(Cl)ccc34)cc2)[nH]c1=O`, for which the TGI with TK-10 renal was > 55.3 µM; in the test on RXF 393 renal, > 68 µM; in the test with CCRF-CEM leukemia, 31.6 µM; in the test with 786-0 renal, > 100 µM; with BT-549 breast, 54.2 µM; with SNB-75 CNS it was > 100 µM. Besides, the TGI in the test on NCI/ADR-RES ovarian was > 100 µM; in the test with HS 578T breast it was 62.4 µM; in the test on SNB-19 CNS it was > 96.7 µM; with SK-MEL-5 melanoma, > 100 µM.
